Test results from US12390430B1 (SpringWorks Therapeutics, Inc., priority 2024, dated 2025).
Like-named read-outs stand apart in the source and are kept apart here.

Tests used:
[1] = Excretion of radioactivity and unchanged mirdametinib; assay type: in vivo
[2] = Clinical pharmacokinetics of mirdametinib (Table A); assay type: in vivo, human; conditions: for Tmax / AUC(0-t) / Cmax: human, plasma; for Tmax: oral, read-out: Tmax [median (range)]; for AUC(0-t) / Cmax: po, steady state, BID oral dosing; for AUC(0-t): read-out: Steady-state exposure AUClast [geometric mean (geometric % CV)]; for Cmax: read-out: Steady-state exposure Cmax [geometric mean (geometric % CV)]
Experimental: Study treatment was administered orally at a twice daily (BID) dose specified in the table below. Dosing was on a 28-day Cycle (4-week course) with a 3 week on/1 week off schedule. The treatment period will last for up to 24 Cycles followed by a 30-day Safety Follow-Up period.

[3] = Human plasma protein binding; assay type: in vitro ADME
[4] = geometric least squares mean ratio
[5] = pediatric patients (2 to <18 years)

Structure (SMILES): O=C(NOC[C@H](O)CO)c1ccc(F)c(F)c1Nc1ccc(I)cc1F (single isomer, unassigned) [mirdametinib]
- Excretion: radioactivity in feces ([1]; feces): In feces: 27%
- Excretion: radioactivity in urine ([1]; urine): In urine: 68%
- Excretion: unchanged mirdametinib in urine ([1]; urine): In urine: 0.7%
- Excretion: unchanged mirdametinib in urine and feces ([1]; urine and feces): In urine and feces: 9%
- Food effect on AUCinf [GMR% (90% CI)] [2, 4]: 93% (90%, 96%)
- Food effect on Cmax [GMR% (90% CI)] [2, 4]: 57% (54%, 61%)
- Tmax ([2]; capsule): 64.8 min
- Tmax ([2]; tablet): 49.8 min
- AUC(0-t) ([2]; adult patients (>18 years)): 431 ng·h/mL
- Cmax ([2]; adult patients (≥18 years)): 188 ng/mL
- AUC(0-t) [2, 5]: 459 ng·h/mL
- Cmax [2, 5]: 191 ng/mL
- fraction unbound [3]: < 0.01
